PubChem BioAssay (NCI)
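Cultured in 96-well plates, cells were exposed to test compound for 48 hours across five concentrations. GI50 = concentration required for 50% inhibition of growth. Definition used: TGI = concentration required for complete inhibition of growth.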

Legend:
Experiment in all cases: inhibition of tumour cell growth, NCI panel, 48 h
[1] = system: HS 578T breast
[2] = system: SNB-19 CNS
[3] = system: T-47D breast
[4] = system: EKVX NSCLC
[5] = system: K-562 leukemia
[6] = system: MALME-3M melanoma
[7] = system: MDA-MB-231 breast
[8] = system: SF-539 CNS
[9] = system: HCT-15 colon
[10] = system: NCI-H226 lung
[11] = system: COLO 205 colon
[12] = system: SK-MEL-5 melanoma
[13] = system: IGROV1 ovarian
[14] = system: A549 NSCLC
[15] = system: A498 renal
[16] = system: OVCAR-8 ovarian
[17] = system: HCT-116 colon
[18] = system: U251 CNS
[19] = system: NCI/ADR-RES ovarian
[20] = system: HOP-62 NSCLC
[21] = system: NCI-H522 lung
[22] = system: SW-620 colon
[23] = system: OVCAR-3 ovarian
[24] = system: RPMI-8226 leukemia
[25] = system: UO-31 renal
[26] = system: HOP-92 NSCLC
[27] = system: CCRF-CEM leukemia
[28] = system: SK-MEL-2 melanoma
[29] = system: PC-3 prostate
[30] = system: M14 melanoma
[31] = system: DU-145 prostate
[32] = system: MDA-MB-435
[33] = system: SR leukemia
[34] = system: HT29 colon
[35] = system: KM12 colon
[36] = system: NCI-H23 lung
[37] = system: MOLT-4 leukemia
[38] = system: HCC-2998 colon
[39] = system: SF-268 CNS
[40] = system: SN12C renal

For `N#C/C(=C\c1ccc([N+](=O)[O-])s1)c1nc2cc(Cl)ccc2s1`, the GI50 [1] was 2450 nM, the TGI [1] was 8450 nM and the GI50 [2] was 1580 nM. The TGI [2] was > 100000 nM, the GI50 [3] was 1880 nM and the TGI [3] was 4970 nM. The GI50 [4] was 1630 nM, the TGI [4] was 5820 nM and the GI50 [5] was 264 nM. The TGI [5] was > 100000 nM, the GI50 [6] was 202 nM and the TGI [6] was 541 nM. The GI50 [7] was 297 nM, the TGI [7] was 1210 nM and the GI50 [8] was 1210 nM. It also gave a TGI [8] of 2790 nM, a GI50 [9] of 246 nM and a TGI [9] of 622 nM. It also gave a GI50 [10] of 690 nM, a TGI [10] of 2360 nM and a GI50 [11] of 1550 nM. It also gave a TGI [11] of 4060 nM, a GI50 [12] of 314 nM and a TGI [12] of 955 nM. The GI50 [13] was 940 nM, the TGI [13] was 4520 nM and the GI50 [14] was 3120 nM. The TGI [14] was > 100000 nM, the GI50 [15] was 3560 nM and the TGI [15] was > 100000 nM. The GI50 [16] was 555 nM, the TGI [16] was 69200 nM and the GI50 [17] was 329 nM. It also gave a TGI [17] of 1270 nM, a GI50 [18] of 599 nM and a TGI [18] of 3020 nM. For the same compound, the GI50 [19] was 1060 nM, the TGI [19] was 6070 nM and the GI50 [20] was 1830 nM. The TGI [20] was 5440 nM, the GI50 [21] was 1180 nM and the TGI [21] was 3560 nM. It also gave a GI50 [22] of 354 nM, a TGI [22] of 2090 nM and a GI50 [23] of 1420 nM. It also gave a TGI [23] of 3230 nM, a GI50 [24] of 675 nM and a TGI [24] of 3260 nM. The GI50 [25] was 602 nM, the TGI [25] was 2800 nM and the GI50 [26] was 287 nM. For the same compound, the TGI [26] was 1600 nM, the GI50 [27] was 469 nM and the TGI [27] was > 100000 nM. For the same compound, the GI50 [28] was 1250 nM, the TGI [28] was 3700 nM and the GI50 [29] was 1310 nM. It also gave a TGI [29] of 3420 nM, a GI50 [30] of 382 nM and a TGI [30] of 1680 nM. The GI50 [31] was 2750 nM, the TGI [31] was > 100000 nM and the GI50 [32] was 1650 nM. The TGI [32] was 3190 nM, the GI50 [33] was 323 nM and the TGI [33] was > 100000 nM. The GI50 [34] was 3290 nM, the TGI [34] was > 100000 nM and the GI50 [35] was 1440 nM. The TGI [35] was 3840 nM, the GI50 [36] was 773 nM and the TGI [36] was 3910 nM. The GI50 [37] was 2110 nM, the TGI [37] was > 100000 nM and the GI50 [38] was 2310 nM. The TGI [38] was 6800 nM, the GI50 [39] was 2510 nM and the TGI [39] was > 100000 nM. The GI50 [40] was 296 nM and the TGI [40] was 1430 nM.
